Measurements from patent publication US12459951B2, “Compounds that interact with RAS superfamily proteins for treatment of cancers, inflammatory diseases, rasopathies, and fibrotic disease” (SHY Therapeutics, LLC, priority 2022, dated 2025).

What was measured:
[1] = tested on: Smad2/Smad3 phosphorylation; experiment: Phospho-Smad2/3 Inhibition Assay (western blot), Panc-1; format: cell-based, human; details: at 10 μM, Panc-1 pancreatic cancer cell line; starred symbols = activation
In short: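 Panc-1 cells (KRas G12D), starved overnight in 0.5% FBS, treated 3 h at 37° C with compound at 10 μM final (0.3% DMSO) or serial dilutions for IC50, then stimulated with 10 ng/ml TGF-b1 for 1 h. Phospho-Smad2 (Ser465/467) and phospho-Smad3 (Ser423/425) detected by western blot.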

Akt phosphorylation = experiment: Akt Phosphorylation Assay (western blot), Panc-1; format: cell-based, human; details: at 10 μM, * = activation
In short: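 Panc-1 (KRas G12D) cells were treated with compound at 10 μM final (0.3% DMSO) for 6 h at 37 °C, or with serial dilutions for IC50. Cells were either serum-starved overnight in 0.5% FBS and then stimulated with 1.5 ng/ml EGF for 15 min, or kept in 10% FBS without stimulation. Akt Ser473 phosphorylation in lysates was read by western blot.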

TNF-alpha = TNF-alpha Quantification Assay (ELISA), LPS-stimulated RAW 264.7; format: cell-based; details: Mus musculus, RAW264.7; at 10 μM; read-out: TNFα: % inh.

Row | SMILES | % inh of Smad2/3 phosphorylation in Panc-1 [1] | % inh of Akt phosphorylation in Panc-1 (Akt phosphorylation) | inhibition at 10 µM (TNF-alpha)
1 | COc1cc(Nc2nc(-c3nccn3C)nn3cc(-c4cccnc4)c(-c4cccnc4)c23)ncn1 [Compound 170, N-(6-Methoxypyrimidin-4-yl)-2-(1-methyl-1H-imidazol-2-yl)-5,6-di(pyridin-3-yl)pyrrolo[2,1-f][1,2,4]triazin-4-amine] | A (A = 1-25% inhibition) | C* (46-84% activation) | 0%
2 | CO[C@H]1C[C@H](Nc2nc(-c3nccn3C)nn3cc(-c4cccnc4)c(-c4cccnc4)c23)C1 [Compound 171, N-((1r,3r)-3-Methoxycyclobutyl)-2-(1-methyl-1H-imidazol-2-yl)-5,6-di(pyridin-3-yl)pyrrolo[2,1-f][1,2,4]triazin-4-amine] | B (B = 26-45% inhibition) | B (26-49% inhibition) | 0%
3 | Cc1c(-c2ccn(C)n2)cn2nc(-c3nccn3C)nc(O)c12 [Compound 172, 5-Methyl-2-(1-methyl-1H-imidazol-2-yl)-6-(1-methyl-1H-pyrazol-3-yl)pyrrolo[2,1-f][1,2,4]triazin-4-ol] | A (A = 1-25% inhibition) | B* (26-49% activation) | 0%
4 | CCNC(=O)c1c(-c2ccn(C)n2)cn2nc(-c3nccn3C)nc(Nc3cc(OC)ccn3)c12 [Compound 173, N-Ethyl-4-((4-methoxypyridin-2-yl)amino)-2-(1-methyl-1H-imidazol-2-yl)-6-(1-methyl-1H-pyrazol-3-yl)pyrrolo[2,1-f][1,2,4]triazine-5-carboxamide] | D* (D* = 76-100% activation) | C* (46-84% activation) | 0%
5 | COc1ccnc(Nc2nc(-c3nccn3C)nn3cc(-c4ccn(C)n4)c(C(=O)NCC(F)(F)F)c23)c1 [Compound 174, 4-((4-Methoxypyridin-2-yl)amino)-2-(1-methyl-1H-imidazol-2-yl)-6-(1-methyl-1H-pyrazol-3-yl)-N-(2,2,2-trifluoro-ethyl)pyrrolo[2,1-f][1,2,4]triazine-5-carboxamide] | A* (A* = 1-25% activation) | D* (85-100% activation) | 0%
6 | COc1ccnc(Nc2nc(-c3nccn3C)nn3cc(-c4ccn(C)n4)c(C(=O)NC4CC4)c23)c1 [Compound 175, N-Cyclopropyl-4-((4-methoxypyridin-2-yl)amino)-2-(1-methyl-1H-imidazol-2-yl)-6-(1-methyl-1H-pyrazol-3-yl)pyrrolo[2,1-f][1,2,4]triazine-5-carboxamide] | B* (B* = 26-45% activation) | D* (85-100% activation) | 0%
7 | COCCNC(=O)c1c(-c2ccn(C)n2)cn2nc(-c3nccn3C)nc(Nc3cc(OC)ccn3)c12 [Compound 176, N-(2-Methoxyethyl)-4-((4-methoxypyridin-2-yl)amino)-2-(1-methyl-1H-imidazol-2-yl)-6-(1-methyl-1H-pyrazol-3-yl)pyrrolo[2,1-f][1,2,4]triazine-5-carboxamide] | B (B = 26-45% inhibition) | D* (85-100% activation) | 0%
8 | COc1ccnc(Nc2nc(-c3nccn3C)nn3cc(-c4ccn(C)n4)c(C(=O)NCCN(C)C)c23)c1 [Compound 177, N-(2-(Dimethylamino)ethyl)-4-((4-methoxypyridin-2-yl)amino)-2-(1-methyl-1H-imidazol-2-yl)-6-(1-methyl-1H-pyrazol-3-yl)pyrrolo[2,1-f][1,2,4]triazine-5-carboxamide] | A (A = 1-25% inhibition) | A* (1-25% activation) | 0%
9 | COc1ccnc(Nc2nc(-c3nccn3C)nn3cc(-c4ccn(C)n4)c(C(=O)N4CCCC4)c23)c1 [Compound 178, (4-((4-Methoxypyridin-2-yl)amino)-2-(1-methyl-1H-imidazol-2-yl)-6-(1-methyl-1H-pyrazol-3-yl)pyrrolo[2,1-f][1,2,4]triazin-5-yl)(pyrrolidin-1-yl)methanone] | B* (B* = 26-45% activation) | D* (85-100% activation) | 0%
10 | COc1ccnc(Nc2nc(-c3nccn3C)nn3cc(-c4ccn(C)n4)c(C(=O)N4CCOCC4)c23)c1 [Compound 179, (4-((4-Methoxypyridin-2-yl)amino)-2-(1-methyl-1H-imidazol-2-yl)-6-(1-methyl-1H-pyrazol-3-yl)pyrrolo[2,1-f][1,2,4]triazin-5-yl)(morpho-lino)methanone] | C* (C* = 46-75% activation) | D* (85-100% activation) | 0%
11 | Cc1c(-c2ccn(C)n2)cn2nc(-c3nccn3C)nc(Nc3cc(OCCNC(=O)CCCC[C@H]4SC[C@H]5NC(=O)N[C@H]54)ccn3)c12 [Compound 186, N-(2-((2-((5-Methyl-2-(1-methyl-1H-imidazol-2-yl)-6-(1-methyl-1H-pyrazol-3-yl)pyrrolo[2,1-f][1,2,4]triazin-4-yl)amino)pyridin-4-yl)oxy)ethyl)-5-((3aR,4R,6aS)-2-oxohexahydro-1H-thieno[3,4-d]imidazol-4-yl)pentanamide] | D* (D* = 76-100% activation) | A* (1-25% activation) | 1 to 24%
12 | COc1ccnc(Nc2nc(-c3nccn3C)nn3cc(-c4ccn(CCN)n4)c(C)c23)c1 [Compound 187, 6-(1-(2-Aminoethyl)-1H-pyrazol-3-yl)-N-(4-methoxypyridin-2-yl)-5-methyl-2-(1-methyl-1H-imidazol-2-yl)pyrrolo[2,1-f][1,2,4]triazin-4-amine] | A* (A* = 1-25% activation) | C* (46-84% activation) | 1 to 24%
13 | COc1ccnc(Nc2nc(-c3nccn3CCN)nn3cc(-c4ccn(C)n4)c(C)c23)c1 [Compound 188, 2-(1-(2-Aminoethyl)-1H-imidazol-2-yl)-N-(4-methoxypyridin-2-yl)-5-methyl-6-(1-methyl-1H-pyrazol-3-yl)pyrrolo[2,1-f][1,2,4]triazin-4-amine] | B (B = 26-45% inhibition) | A* (1-25% activation) | 0%
14 | Cn1ccnc1-c1nc(O)c2c(-c3ccccc3)c(-c3cccnc3)cn2n1 [Compound 189, 2-(1-Methyl-1H-imidazol-2-yl)-5-phenyl-6-(pyridin-3-yl)pyrrolo[2,1-f][1,2,4]triazin-4-ol] | B (B = 26-45% inhibition) | B (26-49% inhibition) | 1 to 24%
15 | CO[C@H]1C[C@@H](Nc2nc(-c3nccn3C)nn3cc(-c4cccnc4)c(-c4ccccc4)c23)C1 [Compound 191, N-((1s,3s)-3-Methoxycyclobutyl)-2-(1-methyl-1H-imidazol-2-yl)-5-phenyl-6-(pyridin-3-yl)pyrrolo[2,1-f][1,2,4]triazin-4-amine] | A* (A* = 1-25% activation) | D* (85-100% activation) | 1 to 24%
